Reference: patent publication US12077503B2, “Substituted cyclic amides and their use as herbicides” (FMC CORPORATION, priority 2015, dated 2024)

Legend:
Format in all cases: in vivo
[1] = tested on: ivy-leaved morning glory (Ipomoea hederacea); experiment: Test G Pre-Emergence Protocol; settings: Ipomoea, pre-emergence, 312 h, evaluated after 13 days
Outline: (§1)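 Pots of seeds in standard soil were grown for one day in a glasshouse (24/16 °C day/night, 14 h light, 65% humidity), then sprayed with compound in acetone/water 50:50 with 0.5% Tween 20 at 15.625, 62.5 or 250 g/ha. Damage was scored after 13 days on a 0 (none) to 100 (total) scale.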

corn (Zea mays) [2] = experiment: Test G Pre-Emergence Protocol; settings: Zea mays, pre-emergence, 312 h, evaluated after 13 days
Outline: as §1

[3] = tested on: velvetleaf (Abutilon theophrasti); experiment: Test G Pre-Emergence Protocol; settings: Abutilon theophrasti, pre-emergence, 312 h, evaluated after 13 days
Outline: as §1

[4] = tested on: redroot pigweed (Amaranthus retroflexus); experiment: Test G Pre-Emergence Protocol; settings: Amaranthus retroflexus, pre-emergence, 312 h, evaluated after 13 days
Outline: as §1

[5] = tested on: giant foxtail (Setaria faberi); experiment: Test G Pre-Emergence Protocol; settings: Setaria faberi, pre-emergence, 312 h, evaluated after 13 days
Outline: as §1

[6] = tested on: barnyardgrass (Echinochloa crus-galli); experiment: Test G Pre-Emergence Protocol; settings: Echinochloa crus-galli, pre-emergence, 312 h, evaluated after 13 days
Outline: as §1

[7] = tested on: ivy-leaved morning glory (Ipomoea hederacea); experiment: Test G Post-Emergence Protocol; settings: Ipomoea, post-emergence, 312 h, read-out: Morningglory, Ivy-leaved damage rating
Outline: (§2)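 Eight days post-sowing, plants received a spray of test compound (acetone/water 50:50, 0.5% Tween 20) at 15.625, 62.5 or 250 g/ha. Glasshouse regime thereafter: 24/16 °C, 14 h light, 65% humidity. Assessment after 13 days on a 0–100 damage scale.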

corn (Zea mays) [8] = experiment: Test G Post-Emergence Protocol; settings: Zea mays, post-emergence, 312 h, read-out: Corn damage rating
Outline: as §2

[9] = tested on: velvetleaf (Abutilon theophrasti); experiment: Test G Post-Emergence Protocol; settings: Abutilon theophrasti, post-emergence, 312 h, read-out: Velvetleaf damage rating
Outline: as §2

[10] = tested on: redroot pigweed (Amaranthus retroflexus); experiment: Test G Post-Emergence Protocol; settings: Amaranthus retroflexus, post-emergence, 312 h, read-out: Pigweed, Redroot damage rating
Outline: as §2

[11] = tested on: giant foxtail (Setaria faberi); experiment: Test G Post-Emergence Protocol; settings: Setaria faberi, post-emergence, 312 h, read-out: Foxtail, Giant damage rating
Outline: as §2

[12] = tested on: barnyardgrass (Echinochloa crus-galli); experiment: Test G Post-Emergence Protocol; settings: Echinochloa crus-galli, post-emergence, 312 h, read-out: Barnyardgrass damage rating
Outline: as §2

[13] = 15.625 g ai/ha, evaluated after 13 days (100=total damage to plant; 0=no damage to plant)
[14] = 62.5 g ai/ha, evaluated after 13 days, 100=total damage to plant, 0=no damage to plant
[15] = 250 g ai/ha, evaluated after 13 days, 100=total damage to plant, 0=no damage to plant

SMILES: CN1CCC(NC(=O)[C@H]2C(=O)N(C)C[C@@H]2c2ccc(C(F)(F)F)cc2)C1=O (mixture of isomers) [Compound 1673]
- pest or weed control at 15.625 g/ha ([1]; 15.625 g ai/ha, read-out: Morningglory, Ivy-leaved damage rating (100=total damage to plant; 0=no damage to plant)): 0%
- pest or weed control at 62.5 g/ha ([1]; 62.5 g ai/ha, 100=total damage to plant, 0=no damage to plant, read-out: Morningglory, Ivy-leaved damage rating): 0%
- pest or weed control at 250 g/ha ([1]; 250 g ai/ha, read-out: Morningglory, Ivy-leaved damage rating (100=total damage to plant; 0=no damage to plant)): 0%
- plant injury at 15.625 g/ha (corn (Zea mays) [2]; 15.625 g ai/ha, read-out: Corn damage rating (100=total damage to plant; 0=no damage to plant)): 0%
- plant injury at 62.5 g/ha (corn (Zea mays) [2]; 62.5 g ai/ha, 100=total damage to plant, 0=no damage to plant, read-out: Corn damage rating): 0%
- plant injury at 250 g/ha (corn (Zea mays) [2]; 250 g ai/ha, read-out: Corn damage rating (100=total damage to plant; 0=no damage to plant)): 0%
- pest or weed control at 15.625 g/ha ([3]; 15.625 g ai/ha, read-out: Velvetleaf damage rating (100=total damage to plant; 0=no damage to plant)): 0%
- pest or weed control at 62.5 g/ha ([3]; 62.5 g ai/ha, 100=total damage to plant, 0=no damage to plant, read-out: Velvetleaf damage rating): 0%
- pest or weed control at 250 g/ha ([3]; 250 g ai/ha, read-out: Velvetleaf damage rating (100=total damage to plant; 0=no damage to plant)): 0%
- pest or weed control at 15.625 g/ha ([4]; 15.625 g ai/ha, read-out: Pigweed, Redroot damage rating (100=total damage to plant; 0=no damage to plant)): 0%
- pest or weed control at 62.5 g/ha ([4]; 62.5 g ai/ha, 100=total damage to plant, 0=no damage to plant, read-out: Pigweed, Redroot damage rating): 0%
- pest or weed control at 250 g/ha ([4]; 250 g ai/ha, read-out: Pigweed, Redroot damage rating (100=total damage to plant; 0=no damage to plant)): 0%
- pest or weed control at 15.625 g/ha ([5]; 15.625 g ai/ha, read-out: Foxtail, Giant damage rating (100=total damage to plant; 0=no damage to plant)): 0%
- pest or weed control at 62.5 g/ha ([5]; 62.5 g ai/ha, 100=total damage to plant, 0=no damage to plant, read-out: Foxtail, Giant damage rating): 0%
- pest or weed control at 250 g/ha ([5]; 250 g ai/ha, read-out: Foxtail, Giant damage rating (100=total damage to plant; 0=no damage to plant)): 0%
- pest or weed control at 15.625 g/ha ([6]; 15.625 g ai/ha, read-out: Barnyardgrass damage rating (100=total damage to plant; 0=no damage to plant)): 0%
- pest or weed control at 62.5 g/ha ([6]; 62.5 g ai/ha, 100=total damage to plant, 0=no damage to plant, read-out: Barnyardgrass damage rating): 0%
- pest or weed control at 250 g/ha ([6]; 250 g ai/ha, read-out: Barnyardgrass damage rating (100=total damage to plant; 0=no damage to plant)): 0%
- pest or weed control at 15.625 g/ha [7, 13]: 0%
- pest or weed control at 62.5 g/ha [7, 14]: 0%
- pest or weed control at 250 g/ha [7, 15]: 0%
- plant injury at 15.625 g/ha (corn (Zea mays) [8]; [13]): 0%
- plant injury at 62.5 g/ha (corn (Zea mays) [8]; [14]): 0%
- plant injury at 250 g/ha (corn (Zea mays) [8]; [15]): 0%
- pest or weed control at 15.625 g/ha [9, 13]: 0%
- pest or weed control at 62.5 g/ha [9, 14]: 0%
- pest or weed control at 250 g/ha [9, 15]: 0%
- pest or weed control at 15.625 g/ha [10, 13]: 0%
- pest or weed control at 62.5 g/ha [10, 14]: 0%
- pest or weed control at 250 g/ha [10, 15]: 0%
- pest or weed control at 15.625 g/ha [11, 13]: 0%
- pest or weed control at 62.5 g/ha [11, 14]: 0%
- pest or weed control at 250 g/ha [11, 15]: 10%
- pest or weed control at 15.625 g/ha [12, 13]: 0%
- pest or weed control at 62.5 g/ha [12, 14]: 0%
- pest or weed control at 250 g/ha [12, 15]: 0%
